Measurements: ChEMBL document CHEMBL4808194, “Design, synthesis and biological evaluation of novel 2,4-disubstituted quinazoline derivatives targeting H1975 cells via EGFR-PI3K signaling pathway” (Bioorg Med Chem, 2021)
Activity calls are given as the source filed them. No cut-off for these calls is given here.

Columns and labels:
[1] = system: NCI-H1975; test: Cell cycle arrest in human NCI-H1975 cells assessed as accumulation at G1 phase at 2 uM incubated for 24 hrs by propidium iodide staining based flow cytometric analysis (reference value: 50.56 %); type: functional
[2] = system: NCI-H1975; test: Induction of apoptosis in human NCI-H1975 cells assessed as shrunken and broken nuclear morphology at 2 to 8 uM incubated for 48 hrs by DAPI staining based fluorescence microscopic analysis; type: functional, cell-based; settings: dose 2-8 µM
[3] = system: NCI-H1975; test: Induction of apoptosis in human NCI-H1975 cells assessed as viable cells at 2 uM incubated for 48 hrs Annexin V-FITC/PI staining based flow cytometric analysis (reference value: 90.9%); type: functional; settings: read-out: Activity
[4] = system: NCI-H1975; test: Inhibition of cell migration in human NCI-H1975 cells incubated for 72 hrs by scratch wound healing assay; type: functional, cell-based; settings: dose 0.5-2 µM
[5] = system: NCI-H1975; test: Inhibition of colony formation in human NCI-H1975 cells assessed as fewer and smaller cell colonies incubated for 7 days by crystal violet staining based microscopic analysis; type: functional; settings: dose 0.5-2 µM, time 7.0 day
[6] = system: MDA-MB-231; test: cells; type: functional, cell-based; settings: Homo sapiens, MDA-MB-231, 72 h
[7] = system: MGC-803; test: cells; type: functional, cell-based; settings: Homo sapiens, MGC-803, 72 h
Description: Antiproliferative activity against human MGC-803 cells assessed as inhibition of cell growth incubated for 72 hrs by MTT assay

[8] = system: NCI-H1975; test: cells; type: functional, cell-based; settings: Homo sapiens, NCI-H1975, 72 h
Description: Antiproliferative activity against human NCI-H1975 cells assessed as inhibition of cell growth incubated for 72 hrs by MTT assay

[9] = system: PC-3; test: cells; type: functional, cell-based; settings: Homo sapiens, PC-3, 72 h
Description: Antiproliferative activity against human PC-3 cells assessed as inhibition of cell growth incubated for 72 hrs by MTT assay

[10] = system: NCI-H1975; test: Cell cycle arrest in human NCI-H1975 cells assessed as accumulation at S phase at 2 uM incubated for 24 hrs by propidium iodide staining based flow cytometric analysis (reference value: 30.87%); type: functional
[11] = system: NCI-H1975; test: Cell cycle arrest in human NCI-H1975 cells assessed as accumulation at G2 phase at 2 uM incubated for 24 hrs by propidium iodide staining based flow cytometric analysis (reference value: 18.57 %); type: functional
[12] = system: NCI-H1975; test: Cell cycle arrest in human NCI-H1975 cells assessed as accumulation at G1 phase at 4 uM incubated for 24 hrs by propidium iodide staining based flow cytometric analysis (reference value: 50.56 %); type: functional
[13] = system: NCI-H1975; test: Cell cycle arrest in human NCI-H1975 cells assessed as accumulation at S phase at 4 uM incubated for 24 hrs by propidium iodide staining based flow cytometric analysis (reference value: 30.87%); type: functional
[14] = system: NCI-H1975; test: Cell cycle arrest in human NCI-H1975 cells assessed as accumulation at G2 phase at 4 uM incubated for 24 hrs by propidium iodide staining based flow cytometric analysis (reference value: 18.57 %); type: functional
[15] = system: NCI-H1975; test: Cell cycle arrest in human NCI-H1975 cells assessed as accumulation at G1 phase at 8 uM incubated for 24 hrs by propidium iodide staining based flow cytometric analysis (reference value: 50.56 %); type: functional
[16] = system: NCI-H1975; test: Cell cycle arrest in human NCI-H1975 cells assessed as accumulation at S phase at 8 uM incubated for 24 hrs by propidium iodide staining based flow cytometric analysis (reference value: 30.87%); type: functional
[17] = system: NCI-H1975; test: Cell cycle arrest in human NCI-H1975 cells assessed as accumulation at G2 phase at 8 uM incubated for 24 hrs by propidium iodide staining based flow cytometric analysis (reference value: 18.57 %); type: functional
[18] = system: NCI-H1975; test: Induction of apoptosis in human NCI-H1975 cells assessed as increase in p53 level at 2 to 8 uM by western blot analysis; type: functional, cell-based; settings: dose 2-8 µM
[19] = system: NCI-H1975; test: Induction of apoptosis in human NCI-H1975 cells assessed as increase in Bax level at 2 to 8 uM by western blot analysis; type: functional, cell-based; settings: dose 2-8 µM
[20] = system: NCI-H1975; test: Induction of apoptosis in human NCI-H1975 cells assessed as decrease in Bcl2 level at 2 to 8 uM by western blot analysis; type: functional, cell-based; settings: dose 2-8 µM
[21] = system: NCI-H1975; test: Induction of ROS generation in human NCI-H1975 cells assessed increase in ROS level at 2 to 8 uM incubated for 48 hrs by DHE staining based fluorescence microscopy; type: functional, cell-based; settings: dose 2-8 µM
[22] = target: Epidermal growth factor receptor (Homo sapiens) (UniProt P00533); test: Inhibition of EGFR in human NCI-H1975 cells assessed as reduction in EGFR phosphorylation level by Western blot analysis; type: cell-based; settings: dose 2-8 µM
Epidermal growth factor receptor (Homo sapiens), sequence (P00533 whole entry): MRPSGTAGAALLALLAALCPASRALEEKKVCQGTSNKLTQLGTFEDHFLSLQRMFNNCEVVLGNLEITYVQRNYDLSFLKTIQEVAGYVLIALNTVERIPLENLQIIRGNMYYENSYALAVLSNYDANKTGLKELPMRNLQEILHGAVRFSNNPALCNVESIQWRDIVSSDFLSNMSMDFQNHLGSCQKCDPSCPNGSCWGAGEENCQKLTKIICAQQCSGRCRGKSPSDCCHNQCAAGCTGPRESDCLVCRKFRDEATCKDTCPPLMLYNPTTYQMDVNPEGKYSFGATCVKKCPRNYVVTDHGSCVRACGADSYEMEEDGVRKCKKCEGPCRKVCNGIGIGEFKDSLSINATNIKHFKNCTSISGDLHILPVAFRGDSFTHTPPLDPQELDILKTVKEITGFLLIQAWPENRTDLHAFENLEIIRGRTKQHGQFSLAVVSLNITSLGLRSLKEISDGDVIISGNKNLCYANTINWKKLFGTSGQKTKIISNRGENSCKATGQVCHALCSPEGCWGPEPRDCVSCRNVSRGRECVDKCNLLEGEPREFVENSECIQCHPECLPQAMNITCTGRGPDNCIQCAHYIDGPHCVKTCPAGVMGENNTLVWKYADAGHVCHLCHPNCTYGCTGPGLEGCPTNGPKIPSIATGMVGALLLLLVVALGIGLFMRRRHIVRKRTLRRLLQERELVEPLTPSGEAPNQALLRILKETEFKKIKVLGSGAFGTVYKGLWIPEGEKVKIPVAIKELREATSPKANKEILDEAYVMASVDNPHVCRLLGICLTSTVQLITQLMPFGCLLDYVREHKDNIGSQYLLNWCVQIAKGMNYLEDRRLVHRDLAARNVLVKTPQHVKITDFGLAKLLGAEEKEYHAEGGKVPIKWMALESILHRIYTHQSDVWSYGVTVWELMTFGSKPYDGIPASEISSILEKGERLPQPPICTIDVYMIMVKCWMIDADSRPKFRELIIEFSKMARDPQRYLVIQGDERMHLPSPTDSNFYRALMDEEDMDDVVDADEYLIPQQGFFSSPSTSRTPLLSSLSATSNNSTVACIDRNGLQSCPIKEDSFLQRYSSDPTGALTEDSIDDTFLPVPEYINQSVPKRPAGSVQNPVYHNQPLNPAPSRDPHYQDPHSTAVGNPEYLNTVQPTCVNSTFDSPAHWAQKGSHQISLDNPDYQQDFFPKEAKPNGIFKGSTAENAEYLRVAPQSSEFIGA

[23] = target: Epidermal growth factor receptor (Homo sapiens) (UniProt P00533); test: Inhibition of EGFR in human NCI-H1975 cells assessed as reduction in PI3K phosphorylation level by Western blot analysis; type: cell-based; settings: dose 2-8 µM
[24] = system: NCI-H1975; test: Induction of apoptosis in human NCI-H1975 cells assessed as early apoptotic cells at 2 uM incubated for 48 hrs Annexin V-FITC/PI staining based flow cytometric analysis (reference value: 1%); type: functional
[25] = system: NCI-H1975; test: Induction of apoptosis in human NCI-H1975 cells assessed as late apoptotic cells at 2 uM incubated for 48 hrs Annexin V-FITC/PI staining based flow cytometric analysis (reference value: 2.53%); type: functional
[26] = system: NCI-H1975; test: Induction of apoptosis in human NCI-H1975 cells assessed as necrotic cells at 2 uM incubated for 48 hrs Annexin V-FITC/PI staining based flow cytometric analysis (reference value: 4.74%); type: functional
[27] = system: NCI-H1975; test: Induction of apoptosis in human NCI-H1975 cells assessed as viable cells at 4 uM incubated for 48 hrs Annexin V-FITC/PI staining based flow cytometric analysis (reference value: 90.9%); type: functional; settings: read-out: Activity
[28] = system: NCI-H1975; test: Induction of apoptosis in human NCI-H1975 cells assessed as early apoptotic cells at 4 uM incubated for 48 hrs Annexin V-FITC/PI staining based flow cytometric analysis (reference value: 1%); type: functional
[29] = system: NCI-H1975; test: Induction of apoptosis in human NCI-H1975 cells assessed as late apoptotic cells at 4 uM incubated for 48 hrs Annexin V-FITC/PI staining based flow cytometric analysis (reference value: 2.53%); type: functional
[30] = system: NCI-H1975; test: Induction of apoptosis in human NCI-H1975 cells assessed as necrotic cells at 4 uM incubated for 48 hrs Annexin V-FITC/PI staining based flow cytometric analysis (reference value: 4.74%); type: functional
[31] = system: NCI-H1975; test: Induction of apoptosis in human NCI-H1975 cells assessed as viable cells at 8 uM incubated for 48 hrs Annexin V-FITC/PI staining based flow cytometric analysis (reference value: 90.9%); type: functional; settings: read-out: Activity
[32] = system: NCI-H1975; test: Induction of apoptosis in human NCI-H1975 cells assessed as early apoptotic cells at 8 uM incubated for 48 hrs Annexin V-FITC/PI staining based flow cytometric analysis (reference value: 1%); type: functional
[33] = system: NCI-H1975; test: Induction of apoptosis in human NCI-H1975 cells assessed as late apoptotic cells at 8 uM incubated for 48 hrs Annexin V-FITC/PI staining based flow cytometric analysis (reference value: 2.53%); type: functional
[34] = system: NCI-H1975; test: Induction of apoptosis in human NCI-H1975 cells assessed as necrotic cells at 8 uM incubated for 48 hrs Annexin V-FITC/PI staining based flow cytometric analysis (reference value: 4.74%); type: functional

- IC50 [6]: 8.16 µM
- IC50 [7]: 6.25 µM
- IC50 [8]: 2.03 µM
- IC50 [9]: 5.37 µM
- inhibition [22]: Dose-Dependent Effect
- inhibition [23]: Dose-Dependent Effect
SMILES: C=CC(=O)Nc1cccc(NC(=O)CSc2nc(Nc3cccc(F)c3)c3ccccc3n2)c1
- Activity [1]: 55.32%
- Activity [2]: Active
- viability at 2 µM [3]: 78.5%
- inhibition [4]: Dose-Dependent Effect
- inhibition [5]: Dose-Dependent Effect
- Activity [10]: 28.59%
- Activity [11]: 16.09%
- Activity [12]: 62.46%
- Activity [13]: 32.22%
- Activity [14]: 5.32%
- Activity [15]: 63.16%
- Activity [16]: 33.44%
- Activity [17]: 3.4%
- Activity [18]: Active
- Activity [19]: Active
- Activity [20]: Active
- Activity [21]: Active
- Activity [24]: 7.91%
- Activity [25]: 8.83%
- Activity [26]: 4.75%
- viability at 4 µM [27]: 63.7%
- Activity [28]: 9.73%
- Activity [29]: 14.2%
- Activity [30]: 12.4%
- viability at 8 µM [31]: 53.4%
- Activity [32]: 18.2%
- Activity [33]: 32.3%
- Activity [34]: 14.3%
